Where two headings read alike, the source gives them in different places.
Tests used:
[1] = target: T1, recombinant full length human JNK3 enzyme (Homo sapiens, UniProt P53779); experiment: JNK 3 inhibition assay (ATP depletion, luciferase); format: biochemical; settings: for IC50: 10 uM ATP, ATF2 substrate; for JNK-3 inhibition (in words): see Table 2
T1 construct: recombinant full length human JNK2 or JNK3 enzyme; purchased Upstate; host or cells: Sf21 cells
Description: In a 96-well plate, recombinant full length human JNK2 or JNK3 enzyme (40 ng) expressed in Sf21 cells (Upstate) was incubated with the substrate ATF2 (3 uM) for 1 hour in the presence of 10 uM ATP. […] The ATP levels were quantified using luciferase with luminescence read on a Victor Light 1420 luminometer. IC50 calculations were plotted using a nonlinear regression curve fit.

[2] = target: T2, recombinant full length human JNK2 enzyme (Homo sapiens, UniProt P45984); experiment: JNK 2 inhibition assay (ATP depletion, luciferase); format: biochemical
T2 construct: recombinant full length human JNK2 or JNK3 enzyme; purchased Upstate; host or cells: Sf21 cells
Description: In a 96-well plate, recombinant full length human JNK2 or JNK3 enzyme (40 ng) expressed in Sf21 cells (Upstate) was incubated with the substrate ATF2 (3 uM) for 1 hour in the presence of 10 uM ATP. […] IC50 calculations were plotted using a nonlinear regression curve fit.

[3] = target: T3, catalytic domain of phosphodiesterase 4B enzyme cloned from human brain (Homo sapiens, UniProt Q07343); experiment: PDE4 inhibition assay (PDELight); format: biochemical; settings: for IC50: 5 uM cAMP, read-out: PDE 4 Inhibition (IC50 in μM)
T3 construct: the catalytic domain of phosphodiesterase 4B enzyme; purchased Scottish Biomedical
How it was run: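 Human PDE4B catalytic domain (40 mU/well) incubated with 5 uM cAMP. AMP formed was converted to ATP and measured by luciferase luminescence (PDELight). IC50 derived by nonlinear regression curve fit.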

[4] = tested on: phosphorylated c-Jun (serine-73); experiment: Phosphorylated c-JUN (6-OHDA), SH-SY5Y; format: cell-based; settings: Homo sapiens, 50 uM 6-hydroxydopamine, 1.5 hours, read-out: p-cJun 6-OHDA SH-SY5Y (EC50 in μM)
How it was run: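 SH-SY5Y cells challenged with 50 uM 6-hydroxydopamine with or without compound (0-30 uM) for 1.5 hours, then paraformaldehyde-fixed. Phospho-c-Jun (Ser73) quantified by cell-based ELISA.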

[5] = tested on: rat chronic constriction injury (CCI) model of neuropathic pain; experiment: Rat chronic constriction injury (CCI) model of neuropathic pain; format: in vivo; settings: for IP CCI efficacy (Change in grams): dose not given, 50% paw withdrawal threshold, von Frey
[6] = tested on: at least one of JNK 3 or JNK 2 and at least one of PDE 10 or PDE 4; experiment: Dual inhibition (phosphodiesterase and JNK); format: biochemical, human; settings: IC50 JNK 3 or JNK 2 less than about 5.00 μM and PDE 10 or PDE 4 less than about 20.0 or 30.0 μM
How it was run: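 JNK2/JNK3: full-length human enzyme with 3 uM ATF2 and 10 uM ATP for 1 h, ATP depletion by luciferase luminescence. PDE4B catalytic domain with 5 uM cAMP, or PDE10A1 with 1 uM cAMP, 1 h; AMP converted to ATP for luminescence. Compounds 0–30 uM; IC50 by nonlinear regression.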

[7] = tested on: phosphorylated c-Jun (serine-73); experiment: Phosphorylated c-JUN (A-beta), E18 rat neuronal cells; format: cell-based; settings: Amyloid Beta peptide 30 uM, 3 hours, read-out: p-cJun Abeta E18 (EC50 in μM)
Description: In 96-well plates either human SH-SY5Y neuroblastoma cells at 2.5×10^4 cells/well or E18 rat neuronal cells at 1.5×10^4 cells/well were seeded. To each well the following was added, Amyloid Beta peptide 1-25 (source) at a concentration of 30 uM, retinoic acid (10 uM) and test compounds (0-30 uM) and incubated for 3 hours. Supernatant was discarded and cells were fixed with 4% paraformaldehyde (100 ul/well) for 20 minutes. FACE cell based ELISA assay (Active Motif) was performed specific for quantifying phosphorlyated c-Jun (serine-73).

[8] = 10 uM ATP, ATF2 substrate, read-out: JNK 2 Inhibition (IC50 in μM)
[9] = read-out: IC50 value based upon a JNK 2 inhibition assay (range given)

T1 sequence (P53779 whole entry): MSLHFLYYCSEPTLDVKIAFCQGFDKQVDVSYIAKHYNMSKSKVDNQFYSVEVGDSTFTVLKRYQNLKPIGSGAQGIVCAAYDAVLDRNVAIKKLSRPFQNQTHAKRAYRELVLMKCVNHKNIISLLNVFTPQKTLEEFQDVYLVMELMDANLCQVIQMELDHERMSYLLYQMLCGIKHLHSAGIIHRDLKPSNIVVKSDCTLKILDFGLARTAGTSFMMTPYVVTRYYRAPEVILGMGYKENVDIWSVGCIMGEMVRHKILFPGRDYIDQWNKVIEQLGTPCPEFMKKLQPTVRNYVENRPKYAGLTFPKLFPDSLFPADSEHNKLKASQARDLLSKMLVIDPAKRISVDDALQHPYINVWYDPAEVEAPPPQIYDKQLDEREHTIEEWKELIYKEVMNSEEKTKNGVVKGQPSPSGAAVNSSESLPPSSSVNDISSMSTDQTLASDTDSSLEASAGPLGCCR
T2 sequence (P45984 whole entry): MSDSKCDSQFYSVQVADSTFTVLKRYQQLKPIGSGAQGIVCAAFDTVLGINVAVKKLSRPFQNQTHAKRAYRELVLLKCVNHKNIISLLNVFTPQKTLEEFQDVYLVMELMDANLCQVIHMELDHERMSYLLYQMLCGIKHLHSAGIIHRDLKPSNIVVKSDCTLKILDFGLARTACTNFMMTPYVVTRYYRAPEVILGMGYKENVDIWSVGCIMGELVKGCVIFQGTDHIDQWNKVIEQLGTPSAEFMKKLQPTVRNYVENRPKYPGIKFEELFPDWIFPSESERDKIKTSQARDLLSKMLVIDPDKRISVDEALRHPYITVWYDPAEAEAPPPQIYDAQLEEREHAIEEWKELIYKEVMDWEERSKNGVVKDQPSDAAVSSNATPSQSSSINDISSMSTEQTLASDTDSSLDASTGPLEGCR
T3 sequence (Q07343 330-659 limits assumed): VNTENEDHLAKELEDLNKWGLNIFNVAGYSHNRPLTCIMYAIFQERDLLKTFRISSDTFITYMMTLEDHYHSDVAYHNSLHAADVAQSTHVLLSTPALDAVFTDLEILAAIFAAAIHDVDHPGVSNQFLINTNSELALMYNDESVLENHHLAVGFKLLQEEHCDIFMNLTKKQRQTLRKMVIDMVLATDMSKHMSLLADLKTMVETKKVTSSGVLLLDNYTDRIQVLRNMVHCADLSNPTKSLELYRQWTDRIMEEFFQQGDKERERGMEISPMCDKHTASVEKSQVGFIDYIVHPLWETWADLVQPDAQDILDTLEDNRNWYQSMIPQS

Row | IC50 [1] [µM] | JNK-3 inhibition (in words) [1] | IC50 [2, 8] [µM] | IC50 [2, 9] [µM] | PDE-4 inhibition (in words) [3] | IC50 [3] [µM] | EC50 [4] [µM] | dual inhibition (phosphodiesterase and JNK) [6] | EC50 [7] [µM] | SMILES | IP CCI efficacy (Change in grams) [5] [grams] | PO CCI efficacy (Change in grams) ([5]; 30 mg/kg) | reversal of allodynia ([5]; oral dosing, multi-day, 24 hr time-points, FIG. 6) | PO CCI efficacy (Change in grams) ([5]; 75 mg/kg)
1 | 1.2 | particularly effective | 0.3 | 0.01 to 2 | particularly effective | 1.1 | 7.7 | effective dual inhibitors |  | CC(C)Nc1nccc(-c2c(C3CC3)nn3ccccc23)n1 [AV1173, 4-(2-cyclopropylpyrazolo[1,5-a]pyridin-3-yl)-N-isopropylpyrimidin-2-amine] | 2.5 | 1.6 (30 mg/kg) grams | capable of reversing allodynia and sustaining the efficacy overnight | 
2 | 0.3 | particularly effective | 0.5 | 0.01 to 2 | particularly effective | 5.9 | 3.1 | effective dual inhibitors | 1.4 | CC(C)Nc1nccc(-c2cnn3ccccc23)n1 [AV1164, N-isopropyl-4-(pyrazolo[1,5-a]pyridin-3-yl)pyrimidin-2-amine] | 1.56 |  |  | 
3 | 2.6 |  | 1.6 |  | particularly effective | 4.3 | 6.1 | effective dual inhibitors | 3 | CC(C)Nc1nccc(-c2c(C(C)C)nn3ccccc23)n1 [AV1137, N-isopropyl-4-(2-isopropylpyrazolo[1,5-a]pyridin-3-yl)pyrimidin-2-amine] | 3.26 |  |  | 0.94 (75 mg/kg) grams
4 | 0.2 | particularly effective | 0.4 | 0.01 to 2 |  | 14 | 1.1 | effective dual inhibitors | 15 | c1ccn2ncc(-c3ccnc(NC4CCCC4)n3)c2c1 [AV1165, N-cyclopentyl-4-(pyrazolo[1,5-a]pyridin-3-yl)pyrimidin-2-amine] | 0.44 |  |  | 

— patent publication US20110039873A1, “SUBSTITUTED PYRAZOLO[1,5-a] PYRIDINE COMPOUNDS HAVING MULTI-TARGET ACTIVITY” (priority 2009, published 2011)
